Experimental data as given in ChEMBL document CHEMBL1201862, “PubChem BioAssay data set” (2004).
Calls of active or inactive are those of the source.

Columns and labels:
[1] = molecular target: Serine/threonine-protein kinase PLK3 (Homo sapiens, UniProt Q9H4B4); type: functional
[2] = molecular target: Serine/threonine-protein kinase PAK 4 (Homo sapiens, UniProt O96013); type: functional;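 note: value obtained within a kinome profiling panel in which PAK4 was one of the panel members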
[3] = molecular target: Ribosomal protein S6 kinase alpha-5 (Homo sapiens, UniProt O75582); type: functional
Sequence of Ribosomal protein S6 kinase alpha-5 (O75582 whole entry): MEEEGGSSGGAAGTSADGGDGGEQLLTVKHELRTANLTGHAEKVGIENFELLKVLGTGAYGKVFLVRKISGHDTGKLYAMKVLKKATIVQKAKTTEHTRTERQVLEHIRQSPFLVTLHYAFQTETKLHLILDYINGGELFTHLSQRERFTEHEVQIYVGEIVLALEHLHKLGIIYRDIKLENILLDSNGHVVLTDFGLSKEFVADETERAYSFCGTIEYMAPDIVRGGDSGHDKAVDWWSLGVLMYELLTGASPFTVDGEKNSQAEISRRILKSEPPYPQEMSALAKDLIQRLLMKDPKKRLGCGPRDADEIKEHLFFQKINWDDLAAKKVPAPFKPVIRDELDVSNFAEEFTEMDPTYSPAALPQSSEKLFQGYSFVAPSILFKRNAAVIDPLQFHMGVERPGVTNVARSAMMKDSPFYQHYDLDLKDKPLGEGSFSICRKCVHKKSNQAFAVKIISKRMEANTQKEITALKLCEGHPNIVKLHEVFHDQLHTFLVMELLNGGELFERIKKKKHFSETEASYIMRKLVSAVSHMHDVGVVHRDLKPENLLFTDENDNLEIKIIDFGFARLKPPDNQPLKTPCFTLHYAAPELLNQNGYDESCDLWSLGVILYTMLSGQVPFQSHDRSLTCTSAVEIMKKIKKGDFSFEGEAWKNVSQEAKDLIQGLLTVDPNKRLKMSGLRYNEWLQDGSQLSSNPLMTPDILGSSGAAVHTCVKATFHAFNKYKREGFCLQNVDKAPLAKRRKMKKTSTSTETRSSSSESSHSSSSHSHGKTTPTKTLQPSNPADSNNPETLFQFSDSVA

[4] = molecular target: Tyrosine-protein kinase ITK/TSK (Homo sapiens, UniProt Q08881); type: functional;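 note: affinity for ITK measured as one member of a broad kinase panel profiling binding across the kinome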
[5] = molecular target: Mitogen-activated protein kinase kinase kinase 20 (Homo sapiens, UniProt Q9NYL2); type: functional
[6] = molecular target: Non-receptor tyrosine-protein kinase TYK2 (Homo sapiens, UniProt P29597); type: functional
[7] = molecular target: Receptor tyrosine-protein kinase erbB-2 (Homo sapiens, UniProt P04626); experiment: Navigating the Kinome. Panel member name: ERBB2; type: functional
[8] = molecular target: Serine/threonine-protein kinase Nek4 (Homo sapiens, UniProt P51957); type: functional
[9] = molecular target: Serine/threonine-protein kinase NLK (Homo sapiens, UniProt Q9UBE8); experiment: Navigating the Kinome. Panel member name: NLK; type: functional
Sequence of Serine/threonine-protein kinase NLK (Q9UBE8 whole entry): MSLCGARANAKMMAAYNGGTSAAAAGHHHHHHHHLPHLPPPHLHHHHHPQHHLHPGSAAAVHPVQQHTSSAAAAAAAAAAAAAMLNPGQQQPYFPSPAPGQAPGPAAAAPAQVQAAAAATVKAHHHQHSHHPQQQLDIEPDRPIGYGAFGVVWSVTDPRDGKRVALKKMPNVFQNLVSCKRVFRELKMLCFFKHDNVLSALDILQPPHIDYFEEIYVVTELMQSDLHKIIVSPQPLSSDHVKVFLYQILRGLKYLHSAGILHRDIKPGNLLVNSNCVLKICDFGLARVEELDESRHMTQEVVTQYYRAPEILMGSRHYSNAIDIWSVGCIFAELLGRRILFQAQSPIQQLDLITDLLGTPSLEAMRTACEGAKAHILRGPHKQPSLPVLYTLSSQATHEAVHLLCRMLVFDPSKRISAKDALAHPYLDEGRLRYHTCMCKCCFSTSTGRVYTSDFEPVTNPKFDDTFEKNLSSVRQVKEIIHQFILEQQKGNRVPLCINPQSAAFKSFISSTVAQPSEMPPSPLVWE

[10] = molecular target: DNA dC->dU-editing enzyme APOBEC-3A (Homo sapiens, UniProt P31941); experiment: APOBEC3A DNA deaminase inhibitors, dose response, biochemical (AID 504722); type: functional
Sequence of DNA dC->dU-editing enzyme APOBEC-3A (P31941 whole entry): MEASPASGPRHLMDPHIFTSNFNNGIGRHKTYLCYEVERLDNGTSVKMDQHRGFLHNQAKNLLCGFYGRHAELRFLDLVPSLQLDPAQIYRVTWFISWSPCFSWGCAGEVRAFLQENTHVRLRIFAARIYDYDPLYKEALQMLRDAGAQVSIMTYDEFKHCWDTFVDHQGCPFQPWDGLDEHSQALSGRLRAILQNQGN

[11] = molecular target: T1, Rac GTPase-activating protein 1 (Homo sapiens, UniProt Q9H0H5); experiment: MgcRacGAP GTPase-activating activity inhibitors, confirmation, biochemical, ADP Hunter fluorescence, primary and confirmatory (AID 624330); type: functional
T1 sequence (Q9H0H5 whole entry): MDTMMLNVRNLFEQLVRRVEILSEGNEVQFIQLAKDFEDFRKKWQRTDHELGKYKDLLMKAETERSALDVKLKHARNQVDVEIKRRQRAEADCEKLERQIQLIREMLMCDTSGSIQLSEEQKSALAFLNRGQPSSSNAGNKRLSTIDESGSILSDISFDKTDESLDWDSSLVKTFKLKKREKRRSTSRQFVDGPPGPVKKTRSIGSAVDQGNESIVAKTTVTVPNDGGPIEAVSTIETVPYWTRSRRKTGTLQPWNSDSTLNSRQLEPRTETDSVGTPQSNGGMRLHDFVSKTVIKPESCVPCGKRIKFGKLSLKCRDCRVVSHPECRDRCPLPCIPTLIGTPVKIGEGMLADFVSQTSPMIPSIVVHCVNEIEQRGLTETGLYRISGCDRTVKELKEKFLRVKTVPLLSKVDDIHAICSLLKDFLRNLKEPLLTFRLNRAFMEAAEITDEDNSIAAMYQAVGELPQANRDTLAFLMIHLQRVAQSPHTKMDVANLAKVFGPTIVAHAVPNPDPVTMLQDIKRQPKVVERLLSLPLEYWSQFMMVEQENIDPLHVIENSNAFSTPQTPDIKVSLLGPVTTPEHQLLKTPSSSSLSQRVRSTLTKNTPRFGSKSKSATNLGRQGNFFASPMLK

[12] = test system: HEK293; experiment: inhibitors of LMP1-driven NF-kB reporter, dose response, cell-based, HEK293, luciferase, cherry-pick (AID 588343); type: functional; settings: Homo sapiens
[13] = molecular target: RNA-editing ligase 1, mitochondrial (Trypanosoma brucei brucei, UniProt P86926); experiment: TbREL1 ligase inhibitors, dose response, biochemical, fluorescence, Trypanosoma brucei (AID 1117295); type: functional
Sequence of RNA-editing ligase 1, mitochondrial (P86926 whole entry): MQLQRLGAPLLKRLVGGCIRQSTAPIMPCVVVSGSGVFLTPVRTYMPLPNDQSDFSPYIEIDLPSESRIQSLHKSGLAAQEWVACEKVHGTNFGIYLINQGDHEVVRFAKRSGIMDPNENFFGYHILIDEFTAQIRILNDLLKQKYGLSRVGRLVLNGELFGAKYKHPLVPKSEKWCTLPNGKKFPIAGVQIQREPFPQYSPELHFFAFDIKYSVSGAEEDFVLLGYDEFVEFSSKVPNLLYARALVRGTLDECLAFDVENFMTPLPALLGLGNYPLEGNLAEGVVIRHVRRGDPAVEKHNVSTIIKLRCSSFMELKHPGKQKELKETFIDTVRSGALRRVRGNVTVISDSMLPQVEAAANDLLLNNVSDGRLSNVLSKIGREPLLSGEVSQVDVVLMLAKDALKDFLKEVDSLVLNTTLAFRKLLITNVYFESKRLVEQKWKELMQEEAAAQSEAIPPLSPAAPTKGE

[14] = molecular target: T2, Apoptotic protease-activating factor 1 (Homo sapiens, UniProt O14727); type: functional
T2 sequence (O14727 whole entry): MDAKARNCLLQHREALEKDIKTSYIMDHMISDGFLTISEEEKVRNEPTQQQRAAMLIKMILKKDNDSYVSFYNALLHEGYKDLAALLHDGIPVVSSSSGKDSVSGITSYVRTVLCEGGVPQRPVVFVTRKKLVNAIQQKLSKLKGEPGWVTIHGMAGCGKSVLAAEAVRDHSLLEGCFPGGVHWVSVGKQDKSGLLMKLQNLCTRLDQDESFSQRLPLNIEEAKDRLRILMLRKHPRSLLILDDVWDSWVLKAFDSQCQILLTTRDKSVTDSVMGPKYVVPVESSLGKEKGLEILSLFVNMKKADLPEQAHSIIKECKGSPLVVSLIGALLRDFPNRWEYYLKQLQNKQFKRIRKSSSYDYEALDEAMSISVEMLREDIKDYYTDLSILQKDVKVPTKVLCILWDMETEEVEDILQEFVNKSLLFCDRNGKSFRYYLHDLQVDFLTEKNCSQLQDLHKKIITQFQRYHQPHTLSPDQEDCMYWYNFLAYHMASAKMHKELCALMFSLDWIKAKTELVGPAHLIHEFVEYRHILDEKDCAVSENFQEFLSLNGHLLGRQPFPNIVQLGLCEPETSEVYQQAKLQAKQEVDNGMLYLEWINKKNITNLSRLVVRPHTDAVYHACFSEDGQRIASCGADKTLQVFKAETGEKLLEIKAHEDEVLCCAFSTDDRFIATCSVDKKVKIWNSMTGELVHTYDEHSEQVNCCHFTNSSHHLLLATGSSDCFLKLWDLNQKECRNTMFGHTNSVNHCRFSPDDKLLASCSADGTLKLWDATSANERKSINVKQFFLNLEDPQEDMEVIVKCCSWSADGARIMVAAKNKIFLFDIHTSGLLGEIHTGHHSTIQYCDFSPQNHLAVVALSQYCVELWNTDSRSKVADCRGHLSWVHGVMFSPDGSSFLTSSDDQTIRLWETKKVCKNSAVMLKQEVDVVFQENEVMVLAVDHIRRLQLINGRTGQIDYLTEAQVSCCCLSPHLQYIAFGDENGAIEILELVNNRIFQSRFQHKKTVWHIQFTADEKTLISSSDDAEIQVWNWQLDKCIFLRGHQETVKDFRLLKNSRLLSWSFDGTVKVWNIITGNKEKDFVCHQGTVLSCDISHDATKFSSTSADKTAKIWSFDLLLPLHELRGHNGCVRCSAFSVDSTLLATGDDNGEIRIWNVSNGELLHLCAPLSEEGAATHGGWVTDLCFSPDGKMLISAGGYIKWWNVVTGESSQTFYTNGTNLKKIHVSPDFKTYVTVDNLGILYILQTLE

[15] = molecular target: Tyrosyl-DNA phosphodiesterase 2 (Homo sapiens, UniProt O95551); experiment: human TDP2 enzyme inhibitors, dose response, biochemical, epi absorbance, IC50 (AID 743297)
Sequence of Tyrosyl-DNA phosphodiesterase 2 (O95551 whole entry): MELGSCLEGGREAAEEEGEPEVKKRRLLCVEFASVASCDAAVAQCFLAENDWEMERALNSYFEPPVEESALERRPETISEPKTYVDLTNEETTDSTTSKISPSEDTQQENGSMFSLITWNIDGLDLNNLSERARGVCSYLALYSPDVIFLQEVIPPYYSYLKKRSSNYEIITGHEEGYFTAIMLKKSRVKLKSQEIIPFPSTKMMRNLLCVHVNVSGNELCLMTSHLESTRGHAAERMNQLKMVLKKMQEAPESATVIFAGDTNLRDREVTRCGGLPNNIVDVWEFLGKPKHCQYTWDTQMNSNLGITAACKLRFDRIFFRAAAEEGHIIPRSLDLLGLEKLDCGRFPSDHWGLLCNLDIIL

[16] = molecular target: Serine/threonine-protein phosphatase (Candida dubliniensis (strain CD36 / CBS 7987 / NCPF 3949 / NRRLY-17841) (Yeast), UniProt B9W6M3); experiment: Fluorescence Cell-Based Secondary Assay to Identify Inhibitors of Calcineurin. [Related pubchem assays (depositor defined):AID1979, AID2007]; type: functional
Sequence of Serine/threonine-protein phosphatase (B9W6M3 whole entry): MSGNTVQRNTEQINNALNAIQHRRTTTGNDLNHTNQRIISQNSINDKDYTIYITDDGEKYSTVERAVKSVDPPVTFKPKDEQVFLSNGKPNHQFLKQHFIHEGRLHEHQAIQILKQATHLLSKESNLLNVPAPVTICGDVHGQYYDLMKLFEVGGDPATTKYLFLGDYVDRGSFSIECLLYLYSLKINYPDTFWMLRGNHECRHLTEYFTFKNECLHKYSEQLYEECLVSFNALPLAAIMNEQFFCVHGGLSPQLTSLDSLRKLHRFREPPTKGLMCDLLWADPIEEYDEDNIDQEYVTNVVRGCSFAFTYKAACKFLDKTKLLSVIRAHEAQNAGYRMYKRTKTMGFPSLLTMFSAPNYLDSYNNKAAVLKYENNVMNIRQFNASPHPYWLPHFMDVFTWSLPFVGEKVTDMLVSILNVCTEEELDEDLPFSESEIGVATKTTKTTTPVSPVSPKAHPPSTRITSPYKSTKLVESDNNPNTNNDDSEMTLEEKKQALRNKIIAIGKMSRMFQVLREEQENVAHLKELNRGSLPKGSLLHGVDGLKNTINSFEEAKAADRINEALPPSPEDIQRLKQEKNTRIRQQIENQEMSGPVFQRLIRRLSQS

[17] = molecular target: ATP-dependent molecular chaperone HSP82 (Candida albicans (strain WO-1) (Yeast), UniProt C4YTQ8); experiment: loss of DOC-induced GRE-beta-galactosidase reporter signal, dose response, Hsp90 inhibitor project, S. cerevisiae, luminescence (AID 2400); type: functional, cell-based;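 note: beta-galactosidase luminescence from glucocorticoid response element reporter as proxy for Hsp90 function; inhibitor potency where signal loss means Hsp90 inhibition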
Sequence of ATP-dependent molecular chaperone HSP82 (C4YTQ8 whole entry): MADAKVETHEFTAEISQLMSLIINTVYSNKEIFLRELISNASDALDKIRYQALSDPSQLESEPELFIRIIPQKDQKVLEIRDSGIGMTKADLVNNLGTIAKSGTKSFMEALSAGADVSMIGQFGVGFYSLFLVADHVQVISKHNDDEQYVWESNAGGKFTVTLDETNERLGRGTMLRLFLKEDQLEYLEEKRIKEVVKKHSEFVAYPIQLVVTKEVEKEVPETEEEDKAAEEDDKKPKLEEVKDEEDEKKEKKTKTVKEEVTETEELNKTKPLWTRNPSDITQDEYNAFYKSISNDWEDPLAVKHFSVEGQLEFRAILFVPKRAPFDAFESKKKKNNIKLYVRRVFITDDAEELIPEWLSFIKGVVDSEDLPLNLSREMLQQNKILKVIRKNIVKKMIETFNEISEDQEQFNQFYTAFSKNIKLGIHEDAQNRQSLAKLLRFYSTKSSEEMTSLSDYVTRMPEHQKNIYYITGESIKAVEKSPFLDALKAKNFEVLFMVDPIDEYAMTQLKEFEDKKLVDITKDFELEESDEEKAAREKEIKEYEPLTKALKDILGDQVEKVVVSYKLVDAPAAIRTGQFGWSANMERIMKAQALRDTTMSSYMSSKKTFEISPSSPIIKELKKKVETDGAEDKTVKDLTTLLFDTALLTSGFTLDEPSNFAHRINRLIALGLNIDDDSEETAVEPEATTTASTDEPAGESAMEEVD

Sequence of Serine/threonine-protein kinase PAK 4 (O96013 whole entry): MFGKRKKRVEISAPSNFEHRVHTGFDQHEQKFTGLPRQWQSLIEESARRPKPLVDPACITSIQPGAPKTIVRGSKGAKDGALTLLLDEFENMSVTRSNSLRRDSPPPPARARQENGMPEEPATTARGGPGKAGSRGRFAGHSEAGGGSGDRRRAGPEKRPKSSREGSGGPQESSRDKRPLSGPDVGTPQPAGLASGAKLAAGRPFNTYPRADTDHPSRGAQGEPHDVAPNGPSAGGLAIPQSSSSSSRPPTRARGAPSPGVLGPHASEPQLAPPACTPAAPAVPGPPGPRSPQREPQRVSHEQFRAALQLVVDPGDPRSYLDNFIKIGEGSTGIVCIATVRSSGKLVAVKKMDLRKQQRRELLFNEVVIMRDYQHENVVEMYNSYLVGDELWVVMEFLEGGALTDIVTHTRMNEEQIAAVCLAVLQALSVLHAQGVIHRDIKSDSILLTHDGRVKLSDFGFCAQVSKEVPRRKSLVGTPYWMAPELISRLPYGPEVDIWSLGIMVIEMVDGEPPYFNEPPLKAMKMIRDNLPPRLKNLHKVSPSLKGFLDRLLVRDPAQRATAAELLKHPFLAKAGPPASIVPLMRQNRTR
Sequence of Serine/threonine-protein kinase PLK3 (Q9H4B4 whole entry): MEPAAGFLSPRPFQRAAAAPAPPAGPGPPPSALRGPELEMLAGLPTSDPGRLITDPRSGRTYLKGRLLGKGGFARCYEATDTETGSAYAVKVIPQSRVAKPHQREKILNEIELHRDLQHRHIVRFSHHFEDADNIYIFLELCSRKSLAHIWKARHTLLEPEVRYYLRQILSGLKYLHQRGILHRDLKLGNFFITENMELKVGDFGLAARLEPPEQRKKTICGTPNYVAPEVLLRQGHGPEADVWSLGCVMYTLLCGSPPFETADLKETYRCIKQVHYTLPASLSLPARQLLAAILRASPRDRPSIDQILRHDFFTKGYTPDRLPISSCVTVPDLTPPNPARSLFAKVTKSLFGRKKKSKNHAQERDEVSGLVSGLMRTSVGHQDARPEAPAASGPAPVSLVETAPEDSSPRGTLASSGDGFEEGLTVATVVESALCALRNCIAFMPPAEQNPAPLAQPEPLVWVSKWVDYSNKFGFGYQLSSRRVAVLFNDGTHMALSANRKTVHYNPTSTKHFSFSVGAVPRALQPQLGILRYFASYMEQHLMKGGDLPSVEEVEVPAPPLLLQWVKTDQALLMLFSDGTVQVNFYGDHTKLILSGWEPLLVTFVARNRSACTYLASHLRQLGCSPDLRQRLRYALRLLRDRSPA

Cc1cccc(NC(=O)Nc2ccc3c(c2)CCc2sc4ncnc(N)c4c2-3)c1
Ki [1]: 2 µM (active) | Ki [2]: > 5.01 µM (inactive) | Ki [3]: > 2 µM (inactive) | Ki [4]: > 1.58 µM (inactive) | Ki [5]: 3.16 µM (active) | Ki [6]: > 2 µM (inactive) | Ki [7]: > 1.58 µM (inactive) | Ki [8]: > 6.31 µM (inactive) | Ki [9]: 0.02 µM (active)

Cc1ccc(-n2sc3ccccc3c2=O)cc1
IC50 [10]: > 100 µM (inactive) | IC50 [11]: 87.4 µM (active)

CCC(=O)NC(c1ccc(C)cc1)c1ccc2cccnc2c1O (configuration not stated)
AC50 [12]: 4.51 µM (active)

N/C(=N\N=C/c1ccc(-c2ccc(O)c(C(=O)O)c2)o1)N[N+](=O)[O-]
IC50 [13]: 21.2 µM (inactive)

CC(=O)N(/N=C1\Sc2ccccc2C1=O)c1ccccc1C
IC50 [14]: 5.13 µM (active) | IC50 [15]: 7.67 µM (active)

CCCC(=O)NC(c1ccc(Cl)cc1)c1ccc2cccnc2c1O (configuration not stated)
EC50 [16]: > 285 µM (inactive) | EC50 [17]: > 160 µM (inactive)
